Test results published in ChEMBL document CHEMBL4342421, “Current scenario of tetrazole hybrids for antibacterial activity” (Eur J Med Chem, 2019).
In brackets after ≈: the same amount, converted by molar mass.

Columns and labels:
Bacillus subtilis [1] = test: Antimicrobial activity against Bacillus subtilis NCIM 2250 after 48 hrs by NCCLS protocol based method; format: functional; settings: NCIM 2250, 48 h
Aspergillus niger [2] = test: Antifungal activity against Aspergillus niger NCIM 545 after 48 hrs by NCCLS protocol based method; format: functional; settings: NCIM 545, 48 h
Candida albicans [3] = test: Antifungal activity against Candida albicans MTCC 277 after 48 hrs by NCCLS protocol based method; format: functional; settings: MTCC 277, 48 h
Escherichia coli [4] = test: Antimicrobial activity against Escherichia coli ATCC 25922 after 48 hrs by NCCLS protocol based method; format: functional; settings: ATCC 25922, 48 h
Streptococcus agalactiae = test: Antimicrobial activity against Streptococcus agalactiae 55118 assessed as zone of inhibition at 100 ug/ml after 24 hrs by disc diffusion method; format: functional; settings: Streptococcus agalactiae, 55118, 24 h; read-out: IZ
Staphylococcus aureus [5] = test: Antimicrobial activity against Staphylococcus aureus ATCC 25923 assessed as zone of inhibition at 100 ug/ml after 24 hrs by disc diffusion method; format: functional; settings: ATCC 25923, 24 h, read-out: IZ
Klebsiella pneumoniae = test: Antimicrobial activity against Klebsiella pneumoniae ATCC 700603 assessed as zone of inhibition at 100 ug/ml after 24 hrs by disc diffusion method; format: functional; settings: ATCC 700603, 24 h, read-out: IZ
MDA-MB-231 = test: Growth inhibition of human MDA-MB-231 cells; format: functional
SiHa = test: Growth inhibition of human SiHa cells; format: functional
PANC-1 = test: Growth inhibition of human PANC1 cells; format: functional
Bacillus subtilis [6] = test: Antimicrobial activity against Bacillus subtilis; format: functional
Priestia megaterium = test: Antimicrobial activity against Bacillus megaterium; format: functional
Escherichia coli [7] = test: Antimicrobial activity against Escherichia coli; format: functional
Micrococcus luteus = test: Antibacterial activity against Micrococcus luteus; format: functional
Salmonella typhimurium = test: Antimicrobial activity against Salmonella typhimurium; format: functional, Salmonella enterica subsp. enterica serovar Typhimurium; settings: Salmonella enterica
Candida albicans [8] = test: Antifungal activity against Candida albicans assessed as zone of inhibition at 50 ug/ml; format: functional; settings: read-out: IZ
Escherichia coli [9] = test: Antimicrobial activity against Escherichia coli assessed as zone of inhibition at 50 ug/ml; format: functional; settings: read-out: IZ
Staphylococcus aureus [10] = test: Antimicrobial activity against Staphylococcus aureus assessed as zone of inhibition at 50 ug/ml; format: functional; settings: read-out: IZ
Aspergillus niger [11] = test: Antifungal activity against Aspergillus niger assessed as zone of inhibition at 50 ug/ml; format: functional; settings: read-out: IZ
Candida tropicalis = test: Antifungal activity against Candida tropicalis; format: functional
Nakaseomyces glabratus = test: Antifungal activity against Candida glabrata; format: functional
Candida albicans [12] = test: Antifungal activity against Candida albicans; format: functional
Staphylococcus aureus [13] = test: Antimicrobial activity against Staphylococcus aureus; format: functional
Pseudomonas aeruginosa = test: Antimicrobial activity against Pseudomonas aeruginosa; format: functional

## CCOC(=O)C(C#N)C(c1cc2c(OCC)cccc2n2nnnc12)P(=O)(OCC)OCC (stereo not drawn)
Bacillus subtilis [1]
  MIC: 10 to 20 µg/mL (≈ 21 to 42.1 µM)
Aspergillus niger [2]
  MIC: 10 to 20 µg/mL (≈ 21 to 42.1 µM)
Candida albicans [3]
  MIC: 10 to 20 µg/mL (≈ 21 to 42.1 µM)
Escherichia coli [4]
  MIC: 10 to 20 µg/mL (≈ 21 to 42.1 µM)

## CCOC(=O)C(C#N)C(c1cc2ccc(OC)cc2n2nnnc12)P(=O)(OCC)OCC (stereo not drawn)
Bacillus subtilis [1]
  MIC: 10 µg/mL (≈ 21.7 µM)
Aspergillus niger [2]
  MIC: 10 µg/mL (≈ 21.7 µM)
Candida albicans [3]
  MIC: 10 µg/mL (≈ 21.7 µM)
Escherichia coli [4]
  MIC: 10 µg/mL (≈ 21.7 µM)

## COc1nc(N)nc(OC)c1Sc1nnnn1CC1CC1
Streptococcus agalactiae
  zone of inhibition at 100 µg/mL: 10 to 24 mm
Staphylococcus aureus [5]
  zone of inhibition at 100 µg/mL: 10 to 24 mm
Klebsiella pneumoniae
  zone of inhibition at 100 µg/mL: 10 to 24 mm

## CC/C(=C(\c1ccccc1)c1ccc(OCCN(C)C)cc1)c1ccccc1 [TAMOXIFEN]
MDA-MB-231
  GI50: 120 to 240 nM
SiHa
  GI50: 120 to 240 nM
PANC-1
  GI50: 120 to 240 nM

## O=C(O)c1cn(C2CC2)c2cc(N3CCN(C(=O)CCSc4nnnn4-c4ccc(C(F)(F)F)cc4)CC3)c(F)cc2c1=O
MDA-MB-231
  GI50: ≤ 1000 nM
Bacillus subtilis [6]
  MIC: 15.6 µg/mL (≈ 24.7 µM)
Priestia megaterium
  MIC: 15.6 µg/mL (≈ 24.7 µM)
SiHa
  GI50: ≤ 1000 nM
PANC-1
  GI50: ≤ 1000 nM
Escherichia coli [7]
  MIC: 15.6 µg/mL (≈ 24.7 µM)
Micrococcus luteus
  MIC: 15.6 µg/mL (≈ 24.7 µM)
Salmonella typhimurium
  MIC: 15.6 µg/mL (≈ 24.7 µM)

## CCOC(=O)C(C#N)C(c1cc2cc(C)ccc2n2nnnc12)P(=O)(OCC)OCC (stereo not drawn)
Bacillus subtilis [1]
  MIC: 10 to 20 µg/mL (≈ 22.5 to 44.9 µM)
Aspergillus niger [2]
  MIC: 10 to 20 µg/mL (≈ 22.5 to 44.9 µM)
Candida albicans [3]
  MIC: 10 to 20 µg/mL (≈ 22.5 to 44.9 µM)
Escherichia coli [4]
  MIC: 10 to 20 µg/mL (≈ 22.5 to 44.9 µM)

## CCOC(=O)C(C#N)C(c1cc2ccc(C)cc2n2nnnc12)P(=O)(OCC)OCC (stereo not drawn)
Bacillus subtilis [1]
  MIC: 10 to 20 µg/mL (≈ 22.5 to 44.9 µM)
Aspergillus niger [2]
  MIC: 10 to 20 µg/mL (≈ 22.5 to 44.9 µM)
Candida albicans [3]
  MIC: 10 to 20 µg/mL (≈ 22.5 to 44.9 µM)
Escherichia coli [4]
  MIC: 10 to 20 µg/mL (≈ 22.5 to 44.9 µM)

## O=C(O)c1cn(C2CC2)c2cc(N3CCN(C(=O)CCSc4nnnn4-c4ccc(Br)cc4)CC3)c(F)cc2c1=O
MDA-MB-231
  GI50: ≤ 1000 nM
Bacillus subtilis [6]
  MIC: 15.6 µg/mL (≈ 24.3 µM)
Priestia megaterium
  MIC: 15.6 µg/mL (≈ 24.3 µM)
SiHa
  GI50: ≤ 1000 nM
PANC-1
  GI50: ≤ 1000 nM
Escherichia coli [7]
  MIC: 15.6 µg/mL (≈ 24.3 µM)
Micrococcus luteus
  MIC: 15.6 µg/mL (≈ 24.3 µM)
Salmonella typhimurium
  MIC: 15.6 µg/mL (≈ 24.3 µM)

## CN(C)c1ccc(/C=C/C(=O)n2nnnc2-c2ccccc2)cc1
Candida albicans [8]
  zone of inhibition at 50 µg/mL: 8 to 15 mm
Escherichia coli [9]
  zone of inhibition at 50 µg/mL: 8 to 15 mm
Staphylococcus aureus [10]
  zone of inhibition at 50 µg/mL: 8 to 15 mm
Aspergillus niger [11]
  zone of inhibition at 50 µg/mL: 8 to 15 mm

## Clc1ccc(COC(Cn2ccnc2)c2ccc(Cl)cc2Cl)c(Cl)c1 (stereo not drawn) [MICONAZOLE]
Candida tropicalis
  MIC: 12.5 to 800 µg/mL (≈ 30 to 1920 µM)
Nakaseomyces glabratus
  MIC: 12.5 to 800 µg/mL (≈ 30 to 1920 µM)
Candida albicans [12]
  MIC: 12.5 to 800 µg/mL (≈ 30 to 1920 µM)

## CCn1nnnc1SCCC(=O)N1CCN(c2cc3c(cc2F)c(=O)c(C(=O)O)cn3C2CC2)CC1
MDA-MB-231
  GI50: ≤ 1000 nM
Bacillus subtilis [6]
  MIC: 15.6 µg/mL (≈ 30.3 µM)
Priestia megaterium
  MIC: 15.6 µg/mL (≈ 30.3 µM)
SiHa
  GI50: ≤ 1000 nM
PANC-1
  GI50: ≤ 1000 nM
Escherichia coli [7]
  MIC: 15.6 µg/mL (≈ 30.3 µM)
Micrococcus luteus
  MIC: 15.6 µg/mL (≈ 30.3 µM)
Salmonella typhimurium
  MIC: 15.6 µg/mL (≈ 30.3 µM)

## Cc1cc2c(=O)c(OCc3nnn[nH]3)c(-c3ccc(F)cc3)oc2cc1Cl
Candida tropicalis
  MIC: 12.5 to 25 µg/mL (≈ 32.3 to 64.6 µM)
Bacillus subtilis [6]
  MIC: 50 to 400 µg/mL (≈ 129 to 1030 µM)
Escherichia coli [7]
  MIC: 50 to 400 µg/mL (≈ 129 to 1030 µM)
Staphylococcus aureus [13]
  MIC: 50 to 400 µg/mL (≈ 129 to 1030 µM)
Nakaseomyces glabratus
  MIC: 12.5 to 25 µg/mL (≈ 32.3 to 64.6 µM)
Candida albicans [12]
  MIC: 12.5 to 25 µg/mL (≈ 32.3 to 64.6 µM)
Pseudomonas aeruginosa
  MIC: 50 to 400 µg/mL (≈ 129 to 1030 µM)

## CCCCCCn1nnnc1Sc1c(OC)nc(N)nc1OC
Streptococcus agalactiae
  zone of inhibition at 100 µg/mL: 10 to 24 mm
Staphylococcus aureus [5]
  zone of inhibition at 100 µg/mL: 10 to 24 mm
Klebsiella pneumoniae
  zone of inhibition at 100 µg/mL: 10 to 24 mm

## CCCn1nnnc1Sc1c(OC)nc(N)nc1OC
Streptococcus agalactiae
  zone of inhibition at 100 µg/mL: 24 mm
Staphylococcus aureus [5]
  zone of inhibition at 100 µg/mL: 24 mm
Klebsiella pneumoniae
  zone of inhibition at 100 µg/mL: 24 mm

## O=C(/C=C/c1ccccc1)n1nnnc1-c1ccccc1
Candida albicans [8]
  zone of inhibition at 50 µg/mL: 8 to 15 mm
Escherichia coli [9]
  zone of inhibition at 50 µg/mL: 8 to 15 mm
Staphylococcus aureus [10]
  zone of inhibition at 50 µg/mL: 8 to 15 mm
Aspergillus niger [11]
  zone of inhibition at 50 µg/mL: 8 to 15 mm

## CC[C@H]1OC(=O)[C@H](C)[C@@H](O[C@H]2C[C@@](C)(OC)[C@@H](O)[C@H](C)O2)[C@H](C)[C@@H](O[C@@H]2O[C@H](C)C[C@H](N(C)C)[C@H]2O)[C@](C)(O)C[C@@H](C)C(=O)[C@H](C)[C@@H](O)[C@]1(C)O [ERYTHROMYCIN]
Streptococcus agalactiae
  zone of inhibition at 100 µg/mL: 10 to 24 mm
Staphylococcus aureus [5]
  zone of inhibition at 100 µg/mL: 10 to 24 mm
Klebsiella pneumoniae
  zone of inhibition at 100 µg/mL: 10 to 24 mm
